PubChem BioAssay (NCI)
Values joined by “and” are separate entries in the source; they are usually repeats but may differ in a detail not shown here. Equal values may be shown once.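 Each compound was tested at five concentrations against cells in 96-well plates for 48 hours. Abbreviation: GI50, concentration required for 50% inhibition of growth. At the TGI there is no net growth.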

Assays:
Test in all cases: DTP human tumour cell line panel, 48 h
HS 578T breast = test system: HS 578T breast
IGROV1 ovarian = test system: IGROV1 ovarian
SR leukemia = test system: SR leukemia
OVCAR-8 ovarian = test system: OVCAR-8 ovarian
RXF 393 renal = test system: RXF 393 renal
COLO 205 colon = test system: COLO 205 colon
A549 NSCLC = test system: A549 NSCLC
ACHN renal = test system: ACHN renal
HCT-116 colon = test system: HCT-116 colon
UO-31 renal = test system: UO-31 renal

SMILES | GI50 (HS 578T breast) | TGI (HS 578T breast) | GI50 (IGROV1 ovarian) | TGI (IGROV1 ovarian) | GI50 (SR leukemia) | TGI (SR leukemia) | GI50 (OVCAR-8 ovarian) | TGI (OVCAR-8 ovarian) | GI50 (RXF 393 renal) | TGI (RXF 393 renal) | GI50 (COLO 205 colon) | TGI (COLO 205 colon) | GI50 (A549 NSCLC) | TGI (A549 NSCLC) | GI50 (ACHN renal) | TGI (ACHN renal) | GI50 (HCT-116 colon) | TGI (HCT-116 colon) | GI50 (UO-31 renal) | TGI (UO-31 renal)
CC(=O)C(C=O)C(C)=O.CC(=O)CC(C)=O.CC(=O)CC(C)=O.[Ru] | 0.0635 µM | 4.2 µM | 20.4 µM | 73.3 µM | 18.2 µM | 92.6 µM | 17.4 µM | > 100 µM | 40.9 µM | > 100 µM | 29.9 µM | > 100 µM | 33.5 µM | > 100 µM | 21 µM | > 100 µM | 21.8 µM | > 100 µM | 26.9 µM | > 100 µM
CCCc1n(Cc2ccc3ccccc3n2)cc[n+]1Cc1ccc2ccccc2n1 | 3.54 µM | 23 µM | 1.48 µM | 15.1 µM | 0.635 µM | 12.7 µM | 3.16 µM | 12.3 µM | 9.08 µM | 35.4 µM | 0.633 µM | 2.21 µM | 7.73 µM | > 100 µM | 33.4 µM | > 100 µM | 2.81 µM | 13.1 µM | 16.5 µM | 73.9 µM
O=C1NC(=N[C@H](CO)c2ccccc2)S/C1=C\c1ccc2ncccc2c1 | 3.49 µM | > 13.8 µM | 4.44 µM | > 17.1 µM | 0.786 µM | 4.85 µM | 5.27 µM | > 25 µM | 4.04 µM | 18.1 µM | 3.54 µM | > 25 µM | 4.62 µM | 18.8 µM | 4.91 µM | > 24 µM | 1.68 µM | > 21 µM | 4.61 µM | 13.8 µM
CS(=O)(=O)N1CCc2c(-c3cnc(N)nc3)nc(N3CCOCC3)nc21 | 0.324 µM and 0.222 µM | 3.3 µM and 1.86 µM | 0.0868 µM and 0.0664 µM | 0.443 µM and 0.485 µM | 2.08 µM and 1.96 µM | > 100 µM | 1.65 µM and 0.984 µM | > 10 µM and 14 µM | 0.605 µM and 0.421 µM | 4.04 µM and 3.27 µM | 0.444 µM and 0.516 µM | > 10 µM and 13 µM | 0.644 µM and 0.413 µM | > 10 µM and 5.45 µM | 0.735 µM and 0.677 µM | > 100 µM | 0.571 µM and 0.553 µM | > 100 µM | 0.18 µM and 0.136 µM | 3.14 µM and 3.03 µM
COc1ccc2nc3cc(Cl)ccc3c(Nc3cc(C(C)C)c(O)cc3C)c2c1 | 1.61 µM | 3.4 µM | 1.55 µM | 3.35 µM | 0.703 µM | 12 µM | 2.06 µM | 4.47 µM | 1.28 µM | 2.9 µM | 1.81 µM | 3.64 µM | 2.26 µM | 6.98 µM | 2.22 µM | 5.08 µM | 1.59 µM | 2.95 µM | 1.49 µM | 2.98 µM
Cc1cc(C#Cc2ccccc2)ccc1-n1c(/C=C/c2cc(O)ccc2O)nc2ccccc2c1=O | 1.54 µM | 7.95 µM | 2.45 µM | 8 µM | 1.1 µM | 2.87 µM | 1.94 µM | 5.4 µM | 1.65 µM | 3.72 µM | 1.48 µM | 2.8 µM | 1.28 µM | 2.68 µM | 1.44 µM | 2.75 µM | 1.46 µM | 2.77 µM | 1.16 µM | 3.1 µM
C=C1C(=O)C2(C)OC2(C)C1C(=O)O (stereo not given) | – | > 100 µM | – | > 100 µM | – | > 100 µM | – | > 100 µM | – | > 100 µM | – | > 100 µM | – | > 100 µM | – | > 100 µM | – | > 100 µM | – | > 100 µM
CC/C(=N/N=C(N)N)c1ccc(NC(=O)Nc2ccc(/C(CC)=N/N=C(N)N)cc2)cc1 | 22.6 µM | > 100 µM | 3.15 µM | 14.8 µM | 2.44 µM | 14.9 µM | 5.95 µM | > 100 µM | 7.81 µM | 33.2 µM | 3.25 µM | 21.2 µM | 5.1 µM | 22.4 µM | 5.78 µM | 24.5 µM | 5.72 µM | 25.5 µM | 12.4 µM | 27.2 µM
CC(C)[C@H](C(=O)O[C@@H]1/C=C/C(=O)O[C@@H](C)CCC/C=C/[C@@H]2C[C@H](O)C[C@H]21)N(C)C | 2.2 µM | 45.9 µM | 22.8 µM | > 71.3 µM | 14.9 µM | 33.8 µM | 13.2 µM | > 68.9 µM | 3.29 µM | 15.6 µM | 3.49 µM | 9.67 µM | 14.6 µM | > 94.4 µM | 35.2 µM | > 100 µM | 14.5 µM | 37.2 µM | 15 µM | > 83.7 µM
O=C1C(Br)=CC2(C=C1Br)CCNc1c(O)c3c4c(c12)=NCCC=4C=N3 | – | 3.87 µM | – | 0.42 µM | – | 0.117 µM | – | 0.511 µM | – | 0.217 µM | – | 0.0289 µM | – | 3.09 µM | – | 0.307 µM | – | 0.116 µM | – | 0.685 µM
FC(F)(F)c1ccc(NCc2nc3ccccc3[nH]2)cc1 | 23.3 µM | 79 µM | 39.9 µM | > 100 µM | 28.3 µM | > 100 µM | 27.5 µM | > 100 µM | 24.4 µM | 81.9 µM | 19.2 µM | 34.3 µM | 27.7 µM | > 100 µM | 34.5 µM | > 100 µM | 23 µM | 68.7 µM | 30.4 µM | > 100 µM
O=c1c2cc(O)c(O)cc2oc2cc(O)c(C3OC(CO)C(O)C(O)C3O)c(O)c12 (stereo not given) | – | > 100 µM | – | > 100 µM | – | > 100 µM | – | > 100 µM | – | > 100 µM | – | > 100 µM | – | > 100 µM | – | > 100 µM | – | > 100 µM | – | > 100 µM
Fc1ccc(-c2c(-c3ccncc3)[nH]c3nccnc23)cc1 | 8.03 µM | > 25 µM | 16.2 µM | > 25 µM | 8.79 µM | > 25 µM | 10.4 µM | > 25 µM | 3.69 µM | 9.8 µM | 5.86 µM | > 25 µM | 7.35 µM | > 25 µM | 3.05 µM | > 25 µM | 6.39 µM | > 22.1 µM | 3.43 µM | > 25 µM
